From a melting point compilation (Tetko et al.; mined from patent text by program, amines drawn as free bases though some values may be those of a salt)

melting point [°C]	Structure (SMILES)
117	CC(=O)OC1CSC(Oc2cccc(-c3ccnc(F)c3)c2)C(OC(C)=O)C1OC(C)=O (configuration not stated)
183	O=C(O)c1ccc(C=CC(=O)N2CCc3c([nH]c4ccccc34)C2c2ccc3c(c2)CCO3)nc1 (configuration not stated)
165 to 168	O=C1C2CCCCC2C(=O)N1c1ccncc1 (configuration not stated)
142 to 144	C=Cc1cc(C)cc(C)c1CC(=O)NC1(C(=O)OC)CCN(OC)CC1
160 to 161	N#CCC(O)(c1ccc(Cl)cc1)c1ccc(-c2ccc(Br)cc2)cc1 (configuration not stated)
198 to 202	Cc1cc(F)ccc1-c1cc(N2CCSCC2)ncc1C(N)=O
182 to 183	COc1c(-c2cc3c(s2)C(O)CC(C)(C)C3)ccc2c(=O)c(C(=O)O)cn(C3CC3)c12 (configuration not stated)
134 to 135	Cc1[nH]c2ccc(CCN(CC(C)C)CC(C)C)cc2c1C(=O)OCc1ccccc1
94 to 94.5	CCOC(=O)[C@@H]1C[C@H]1Sc1nc2ccccc2cc1-c1ccccc1 (relative stereo)
135 to 137	COC(=O)Nc1ccccc1C=Cc1ccccc1Cl
70 to 71	O=C(C1=NCCCCCN1)c1ccccc1
133 to 135	CS(=O)(=O)c1ccc(-c2cnn(CC(F)(F)F)c(=O)c2OCC2CC2)cc1
260 to 264	CN1CCN(c2ccc(Nc3cc(-c4cccc(-n5ncc6cc(C(C)(C)C)cc(F)c6c5=O)c4CO)nn(C)c3=O)nc2)CC1
308 to 310	C=C(C)[C@@H]1CC[C@]2(C(=O)O)CC[C@]3(C)[C@H](CC[C@@H]4[C@@]5(C)CC[C@H](OC(=O)[C@H]6C[C@@H](C(=O)O)C6(C)C)C(C)(C)[C@@H]5CC[C@]43C)[C@@H]12
266 to 268	CC1(C)N=C(O)N=C(NC(=O)c2nc(Cl)c(N)nc2N)N1
130 to 131	CCOC(=O)Nc1sc(-c2ccc([N+](=O)[O-])cc2)c(C)c1C(=O)OCC
105 to 107	CCN(CC)CCOCCC1CCCCN1C(=O)N1c2ccccc2NC(=O)c2csc(C)c21 (configuration not stated)
314 to 317	O=c1[nH]c2cc(Cl)cc(Cl)c2c(=O)n1Cc1cccc([N+](=O)[O-])c1

melting point [°C]	Structure (SMILES)
143 to 144	O=C(Nc1nc(C(F)(F)C(F)(F)F)c(I)s1)c1cc(C(F)(F)F)cc(C(F)(F)F)c1
87 to 89	COc1ccc(CCC(=O)CCC(Cc2ccc(OC)c(OC)c2)[N+](=O)[O-])cc1 (configuration not stated)
166 to 168	CCc1nc2cnc3ccccc3c2n1CCCCNS(C)(=O)=O
> 285	CCn1c(=O)c2[nH]c(/C=C/c3cc(OC)c(OC)cc3Br)nc2n(CC)c1=O
154 to 157	O=C(c1ccc(Cl)cc1)c1ccc(CS(=O)(=O)C(F)F)cc1
156 to 158	O=C(O)CCCn1ccn(C2CCc3ccccc3C2)c1=S (configuration not stated)
224 to 226	COC(=O)c1cc(OC)c(Cc2c(N)nc(N)nc2O)c(OC)c1
189 to 198	COc1cc(C2CCN(C)CC2)ccc1Nc1ncc2ccc(-c3cccc(S(=O)(=O)NC(C)(C)C)c3)n2n1
145 to 146	Cn1cnc2ccc(-c3nnc(CCc4cccc(F)c4)o3)cc21
104 to 105	CC1=C(c2cc(C)no2)C(=O)CCC1
84 to 85	Cc1ccc(NC(C)CC(=O)NC(=O)OC(C)(C)C)cc1 (configuration not stated)
167 to 169	COC1CCc2c(Nc3ccc(C#N)cc3)ncnc21 (configuration not stated)
158 to 161	Cc1ccc2c(Cl)cc(S(=O)(=O)NCc3ccc(Cl)cc3)c(O)c2n1
175 to 176	Nc1ccc(-c2nc(-c3ccco3)no2)c(Cl)c1
264 to 267	COC1=CC(=O)c2cc(O)ccc2C1=O
131 to 132	CCOC(=O)[C@H](Cc1cc(O)c(O)cc1I)NC=O
172 to 175	NC(=O)c1sc2ncnc(-c3cccc(NC(=O)Nc4ccccc4C(F)(F)F)c3)c2c1N
229 to 231	COc1cc(C(=O)O)cc2c(C)c(C)oc12

Structure (SMILES)	melting point [°C]
Cc1ccc(C2=CCN(CCCc3nnc4n3CCCCC4)CC2)cc1	93 to 96
